In brackets after ≈: the same amount, converted by molar mass. Counter-ions that a name gives are not always drawn. Like-named read-outs stand apart in the source and are kept apart here.
Experiments:
[1] = tested on: Neuronal cortical cells treated with Aβ1-42; assay: Assay 3(c) Aβ neurotoxicity and Aβ neuroprotection (MTS); assay type: cell-based, mouse; details: 20 uM Aβ1-42, 4 days
Procedure: Primary Cortical Neuronal Cultures
Cortical cultures were prepared as previously described (White et al., 1998). Embryonic day 14 BL6Jx129sv mouse cortices were removed, dissected free of meninges and dissociated in 0.025% (wt/vol) trypsin. Dissociated cells were plated in 48 well culture plates at a density of 2×10^6 cells/mL in MEM with 25% (vol/vol) FCS and 5% (vol/vol) HS and incubated at 37° C., 2 hrs. Media was then replaced with Neurobasal media (Invitrogen Life Technologies) and B27 supplements (Invitrogen Life Technologies). Cultures were maintained at 37° C. in 5% CO2. Prior to experimentation, the culture medium was replaced with Neurobasal media and B27 minus antioxidants (Invitrogen Life Technologies).
(c) Assay for Aβ Neurotoxicity and Aβ Neuroprotection
Neuronal cortical cells were cultured for five days as per Assay 2. On day six the neurobasal (NB) media (Invitrogen Life Technologies) and B27 supplement (Invitrogen Life Technologies) were replaced with NB media and B27 supplement (no antioxidants). On day six, test compounds were individually added to the neuronal cell cultures:
(§1) The test compounds were dissolved in 100% DMSO to a concentration of 2.5 mM (10 mM if excess compound was weighed out per vial—then diluted to 2.5 mM). 2.5 mM stock solution was serially diluted 1 in 10 to give working solutions of 250 uM, 25 uM, 2.5 uM.
Aβ was initially dissolved in 20 mM NaOH to a concentration of 1 mM and sonicated for 5 minutes. The peptide was then diluted in H2O and 10×PBS to a final concentration of 200 uM Aβ in 1×PBS. The peptide was again sonicated for 5 minutes and then spun at 14000 rpm for 5 min and transferred to a fresh tube.
as §1, with “in 10 [in NB media and B27 (no antioxidants)] to give” for “in 10 to give”, “2.5 uM. Test compounds were not added directly to cells, instead they were added to a 48 well ‘Drug Plate’ as comprised below:” for “2.5 uM.”
Preparation of “Drug Plate”:
• Well 1: 515 ul NB+B27(no antioxidant)*+24 ul 25 uM test compound+60 ul Aβ diluent** • Well 2: 515 ul NB+B27(no antioxidant)+24 ul 250 uM test compound+60 ul Aβ diluent • Well 3: 515 ul NB+B27(no antioxidant)+24 ul test compound diluent***+60 ul Aβ1-42 • Well 4: 515 ul NB+B27(no antioxidant)+24 ul 2.5 uM test compound+60 ul Aβ1-42 • Well 5: 515 ul NB+B27(no antioxidant)+24 ul 25 uM test compound+60 ul Aβ1-42 • Well 6: 515 ul NB+B27(no antioxidant)+24 ul 250 uM test compound+60 ul […] • Well 7: 515 ul NB+B27(no antioxidant)+24 ul test compound diluent+60 ul Aβ1-42 diluent • Well 8: 600 ul NB+B27(no antioxidant) • N.B. 60 ul Aβ1-42 equals 20 ul Aβ1-42 per well equals 20 uM Aβ1-42
The Drug Plate was incubated at 37° C. for 15 mins. 200 ul of each well was added in triplicate to the corresponding cell plate. The cell plate was incubated at 37 C, for 4 days. • * NB media+B27 (no antioxidants), • ** Aβ diluent 2 mM NaOH, 1×PBS • *** PBT diluent 10% DMSO in NB+B27(no antioxidant) Completion of the Assay:
On the 4th day after treating the cells the assay is completed by adding MTS to the cells.

[2] = tested on: moderately severe AD patients; assay: Phase II clinical trial in Alzheimer's disease: cognition (ADAS-cog); assay type: in vivo, human; details: more-severely affected groups
Excerpt: The performance of the less-severely affected group (ADAS-cog<25) deteriorated negligibly over this interval, so cognitive changes could not be discriminated in this stratum.
Study population: The study took place at the AD clinical trials unit, Mental Health Research Institute of Victoria and at the Royal Melbourne Hospital. Criteria for inclusion in the study were: informed consent; a diagnosis of probable AD by NINCDS-ADRDA criteria (McKhann et al., 1984); AD Assessment Scale-cognitive (ADAS-cog) (Rosen et al., 1984) score of 18-45; Mini Mental State Examination (MMSE) (Folstein et al., 1975) score of 10-24; on donepezil 5 mg or 10 mg for at least 6 months; relative or carer willing and able to support the trial; able to complete trial examinations; primary sensorial functions intact.
(§2) Study design: The study was a double blind, placebo-controlled, parallel group randomized design. […] The duration of the study was 36 weeks.
Outcome measures: The primary clinical efficacy variable was a change from baseline score on the ADAS-cog conducted at baseline and at weeks 4, 12, 24 and 36. […]
Data preparation and statistical analysis: Data monitoring and management were undertaken by independent contractors (Kendle International and Health Research Solutions, Melbourne). […] Differences between groups on categorical measures were analysed using exact statistical methods in order to maximise power. […]

[3] = Phase II clinical trial: plasma metal levels (ICP-MS); assay type: in vivo, human; details: AD patients, oral
Excerpt: as §2
Blood samples were collected by antecubital venepuncture except on weeks 12, 24 and 36 when they were collected by an indwelling catheter. […] Zn data from these intervals were therefore omitted from analysis.
Outcome measures: The primary clinical efficacy variable was a change from baseline score on the ADAS-cog conducted at baseline and at weeks 4, 12, 24 and 36. This measure was chosen to allow comparability of treatment effects with current therapeutics such as donepezil, where efficacy trials also used ADAS-cog as their primary outcome measure (Rogers et al., 1998). Although numerous neuropsychological tests could be considered as secondary measures, it was necessary to avoid fatiguing the subjects at review. Therefore the only other cognitive test was the Mini-Mental State Exam (MMSE). The CIBIC+ (clinician interview based impression of change incorporating caregiver information), a subjective observational index was also conducted. Plasma Aβ, and plasma zinc and copper were all taken every four weeks.
Metal levels: Metals were measured by inductively coupled plasma mass spectrometry as previously described (Cherny et al., 2001).

[4] = Phase II clinical trial: therapeutic drug monitoring, blood levels by HPLC; assay type: in vivo; details: human, oral, read-out: Steady state pre-dose blood level
Excerpt: as §2

[5] = biological target: T1, Aβ 1-42 (Homo sapiens, UniProt P05067); assay: Assay 1 Fluorometric H2O2 assay: inhibition of hydrogen peroxide generation by Aβ in the presence of copper; assay type: biochemical; details: Aβ 1-42 with Cu-Gly, DCF fluorescence
T1 construct: The reaction solutions contained Aβ 1-42
Procedure: Assay 1. Fluorometric H2O2 Assay
A fluorometric assay was used to test the ability of a test compound to inhibit hydrogen peroxide generation by Aβ in the presence of copper based on dichlorofluoroscein diacetate (DCF; Molecular Probes, Eugene Oreg.). The DCF solution (5 mM) in 100% dimethyl sulphoxide (previously purged with argon for 1 hr at 20° C.) was deacetylated in the presence of 0.025M NaOH for 30 min and neutralised at pH 7.4 to a final concentration of 1 mM. Horseradish peroxidase ([…]) stock solution was prepared to 1 μM at pH 7.4. The reactions were carried out in PBS, pH 7.4 in a 96 well plate (total volume=250 μl/well). The reaction solutions contained Aβ 1-42 at concentrations in the range of 50 nM to 1 μM, copper-glycine chelate (Cu-Gly), was prepared by adding CuCl2 to glycine in the ratio of 1:6 and added to the Aβ in the proportion 2Cu-Gly: 1Aβ), reducing agents including dopamine (5 μM) or ascorbic acid, deacetylated DCF 100 μM, and HRP, 0.1 μM. 1-10 μM EDTA or another chelator may also be present as a control for free copper, but was not required for the assay to function. The reaction mixture was incubated at 37 C for 60 min. Catalase (4000 units/ml) and H2O2 (1-2.5 μM) standards in PBS pH 7.4 may be included as positive controls. Fluorescence was recorded using a plate reader with excitation and emission filters at […] respectively. H2O2 concentration may be established by comparing fluorescence with the H2O2 standards. Inhibition of Aβ H2O2 production was assayed by including a given concentration of test compound(s) in the test wells.

[6] = Assay 12 Turbidimetric solubility measurements; assay type: physicochemical; details: kinetic from dmso stock, nephelometry
Procedure: Turbidimetric Solubility Measurements
The solubility estimate was measured at both pH 2.0 and pH 6.5. This is within the pH range that can be anticipated along the proximal gastrointestinal tract in humans.
The compounds were dissolved in DMSO to appropriate concentrations and then spiked into either 0.01M HCl (approx. pH=2.0) or pH 6.5 isotonic phosphate buffer, the final DMSO concentration being 1%. Samples were then analysed via Nephelometry to determine a solubility range. [as per D. Bevan and R. S. Lloyd, Anal. Chem. 2000, 72, 1781-1787].

[7] = aqueous buffer, pH 6.5 isotonic phosphate buffer, 1% DMSO, read-out: Assay 12 Solubility at pH 6.5
[8] = simulated gastric fluid, 0.01 M HCl, pH 2.0, 1% DMSO, read-out: Assay 12 Solubility in 0.01 M HCl, pH 2.0

T1 sequence (P05067 672-713 limits assumed): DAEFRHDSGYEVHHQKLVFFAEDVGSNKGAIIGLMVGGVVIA

Row | Structure (SMILES) | Assay 3(c) Neuroprotection (% inhibition of Abeta toxicity) [1] [%] | IC50 [5] [nM] | also measured
1 | Cc1cnc2c(Cl)cc(Cl)c(O)c2n1 [PBT 1064, 6,8-Dichloro-3-methylquinoxalin-5-ol] | 29 | – | –
2 | Oc1c(I)cc(Cl)c2cccnc12 [PBT-1, iodochlorohydroxyquinoline] | – | – | Difference in mean change from baseline ADAS-cog score over placebo ([2]; week 24): 7.37 (95% CI: 1.51-13.24); Difference in mean change from baseline ADAS-cog score over placebo ([2]; week 36): 6.36 (95% CI: −0.50-13.23); Effect on plasma Cu [3]: no effect; Elevation of total plasma Zn [3]: ≈ 30%; concentration at 12 weeks ([4]; 250 mg/day, total daily dosage 250 mg): 4030 ± 2100 ng/mL; concentration at 24 weeks ([4]; 500 mg/day, total daily dosage 500 mg): 6740 ± 3700 ng/mL; concentration at 36 weeks ([4]; 750 mg/day, total daily dosage 750 mg): 7600 ± 2150 ng/mL
3 | COC(=O)c1nc(Cl)c2cccnc2c1O [PBT-1045, 5-chloro-8-hydroxy-[1,6]naphthyridine-7-carboxylic acid methyl ester] | 12 | 900 | –
4 | O=c1ccnc2c(O)cccn12 [PBT-1048, 9-hydroxypyrido[1,2-a]pyrimidin-4-one] | 22 | 350 | –
5 | O=c1[nH]cnc2c(O)cccc12 [PBT-1049, 8-hydroxy-3H-quinazolin-4-one] | 11 | 1600 | –
6 | O=c1c2c(Cl)cc(Cl)c(O)c2ncn1-c1ccc(F)cc1 [PBT-1055, 5,7-Dichloro-3-(4-fluorophenyl)-8-hydroxy-3H-quinazolin-4-one] | 29 | 750 | solubility [6, 7]: 3 to 6.3 µg/mL (≈ 9.23 to 19.4 µM); solubility [6, 8]: 3 to 6.3 µg/mL (≈ 9.23 to 19.4 µM)
7 | Cc1cnc2c(O)c(Cl)cc(Cl)c2n1 [PBT-1065, 6,8-Dichloro-2-methylquinoxalin-5-ol] | 7 | – | –
8 | CN(C)Cc1cnc2c(Cl)cc(Cl)c(O)c2n1 [PBT-1066, 6,8-Dichloro-3-(dimethylaminomethyl)quinoxalin-5-ol hydrochloride] | – | – | solubility [6, 7]: > 100 µg/mL; solubility [6, 8]: > 100 µg/mL
9 | O=c1[nH]cnc2c(O)c(Cl)cc(Cl)c12 [PBT-1067, 5,7-Dichloro-8-hydroxy-3H-quinazolin-4-one] | – | 950 | solubility [6, 7]: 25 to 50 µg/mL (≈ 108 to 216 µM); solubility [6, 8]: 12.5 to 25 µg/mL (≈ 54.1 to 108 µM)
10 | O=c1c(-c2ccc(Cl)cc2)cnc2c(O)cccn12 [PBT-1069, 3-(4-chlorophenyl)-9-hydroxypyrido[1,2-a]pyrimidin-4-one] | – | 600 | –
11 | CNCc1ccc2cnc(C(=O)NCc3ccc(F)cc3)c(O)c2n1 [PBT-1070] | – | 1140 | –

Source: patent publication US7692011B2, “8-hydroxy and 8-mercapto quinazolinones” (Prana Biotechnology Limited, priority 2002, dated 2010)
